{"source": "ChEMBL document CHEMBL5131375", "about": "“Recent Developments in the Use of Kinase Inhibitors for Management of Viral Infections” (J Med Chem, 2022)", "key": {"[1]": {"test": "in vitro", "conditions": "human"}, "[2]": {"test": "in vitro", "conditions": "human, HeLa cells"}, "[3]": {"test": "Cytotoxicity against human HaCaT cells", "assay_type": "toxicity, cell-based"}, "[4]": {"target": "Serine/threonine-protein kinase mTOR (Homo sapiens, UniProt P42345)"}, "[5]": {"test_system": "Middle East respiratory syndrome-related coronavirus", "test": "microbe, parasite or virus in culture", "assay_type": "functional"}, "[6]": {"test": "in vitro", "conditions": "human, jurkat 6c6-du cell"}, "[7]": {"test_system": "Human immunodeficiency virus", "test": "microbe, parasite or virus in culture", "assay_type": "functional, organism-based", "conditions": "Human immunodeficiency virus 1"}, "[8]": {"test_system": "Pichinde virus", "test": "Antiviral activity against PICV assessed as reduction of viral growth at 50 uM", "assay_type": "functional", "parameters": "scale not given: the % may be the effect or the level left"}, "[9]": {"test_system": "Pichinde virus", "test": "Antiviral activity against PICV infected in african green monkey Vero cells assessed as reduction in viral titre at 100 uM relative to control", "assay_type": "functional", "parameters": "scale not given: the % may be the effect or the level left"}, "[10]": {"test_system": "Human immunodeficiency virus 1", "test": "Antiviral activity against HIV-1 assessed as reduction of viral growth at 50 uM", "assay_type": "functional", "parameters": "scale not given: the % may be the effect or the level left"}, "[11]": {"test": "in vitro", "conditions": "chlorocebus sabaeus, Vero cells"}, "[12]": {"test_system": "Human alphaherpesvirus 1", "test": "Antiviral activity against HSV-1 assessed as reduction of viral growth at 50 uM", "assay_type": "functional", "parameters": "scale not given: the % may be the effect or the level left"}, "[13]": {"test_system": "Hepatitis B virus", "test": "microbe, parasite or virus in culture", "assay_type": "functional, organism-based", "conditions": "Hepatitis B virus"}, "[14]": {"test_system": "Human alphaherpesvirus 1", "test": "Antiviral activity against HSV-1 infected in african green monkey Vero cells assessed as inhibition of cytopathic effect at 50 uM", "assay_type": "functional", "parameters": "scale not given: the % may be the effect or the level left"}, "[15]": {"test": "Cytotoxicity against HSG cells", "assay_type": "toxicity, cell-based", "conditions": "human"}, "[16]": {"test_system": "Cytomegalovirus", "test": "Antiviral activity against CMV", "assay_type": "functional, organism-based", "conditions": "Human betaherpesvirus 5"}, "[17]": {"test_system": "Influenza A virus", "test": "Antiviral activity against influenza pH1N1 virus", "assay_type": "functional, organism-based"}, "[18]": {"test": "Cytotoxicity against human NCI-H1666 cells", "assay_type": "toxicity, cell-based"}, "[19]": {"test_system": "Influenza A virus", "test": "microbe, parasite or virus in culture", "assay_type": "functional, organism-based", "conditions": "H1N1"}, "[20]": {"test": "Cytotoxicity against human LN-18 cells", "assay_type": "toxicity, cell-based"}, "[21]": {"test": "in vitro", "conditions": "human, MDM cells"}, "[22]": {"test_system": "Human immunodeficiency virus 1", "test": "microbe, parasite or virus in culture", "assay_type": "functional, organism-based"}, "[23]": {"test_system": "Human alphaherpesvirus 3", "test": "microbe, parasite or virus in culture", "assay_type": "functional, organism-based"}, "[24]": {"target": "Cyclin-dependent kinase 4 (Homo sapiens, UniProt P11802)", "sequence (P11802 whole entry)": "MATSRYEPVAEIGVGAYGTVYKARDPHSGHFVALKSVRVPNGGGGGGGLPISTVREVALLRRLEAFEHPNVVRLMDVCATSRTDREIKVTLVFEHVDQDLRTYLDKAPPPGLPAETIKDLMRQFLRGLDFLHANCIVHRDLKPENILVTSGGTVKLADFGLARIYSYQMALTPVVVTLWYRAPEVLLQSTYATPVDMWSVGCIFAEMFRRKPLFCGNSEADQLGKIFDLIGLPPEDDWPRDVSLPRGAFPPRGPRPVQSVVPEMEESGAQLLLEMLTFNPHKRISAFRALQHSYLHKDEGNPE"}, "[25]": {"test_system": "Human immunodeficiency virus 2", "test": "microbe, parasite or virus in culture", "assay_type": "functional, organism-based"}, "[26]": {"test": "in vitro", "conditions": "human, PBMC"}, "[27]": {"test_system": "Human coronavirus 229E", "test": "microbe, parasite or virus in culture"}, "[28]": {"test_system": "Middle East respiratory syndrome-related coronavirus", "test": "microbe, parasite or virus in culture"}, "[29]": {"test_system": "dengue virus type 2", "test": "microbe, parasite or virus in culture", "assay_type": "functional, organism-based"}, "[30]": {"test_system": "Feline infectious peritonitis virus", "test": "microbe, parasite or virus in culture", "conditions": "Alphacoronavirus 1"}, "[31]": {"test_system": "Middle East respiratory syndrome-related coronavirus", "test": "microbe, parasite or virus in culture", "remark": "listed apart in the source"}, "[32]": {"test_system": "Dengue virus", "test": "microbe, parasite or virus in culture", "conditions": "Huh-7"}, "[33]": {"test_system": "Human coronavirus 229E", "test": "microbe, parasite or virus in culture", "remark": "listed apart in the source"}, "[34]": {"test": "in vitro", "conditions": "human, l132"}, "[35]": {"test_system": "Human coronavirus 229E", "test": "Antiviral activity against HCoV-229E assessed as reduction of viral RNA level at 4 uM relative control", "assay_type": "functional", "parameters": "scale not given: the % may be the effect or the level left"}, "[36]": {"test": "Cytotoxicity against human A549 cells", "assay_type": "toxicity, cell-based"}, "[37]": {"test_system": "Influenza A virus", "test": "Antiviral activity against influenza A RB1/H1N1pdm09 virus", "assay_type": "functional, organism-based"}, "[38]": {"test": "Cytotoxicity against MDCK-II cells", "assay_type": "toxicity, cell-based, Canis lupus familiaris", "conditions": "dog"}, "[39]": {"test": "Cytotoxicity against human MCL cells", "assay_type": "toxicity, cell-based"}}}
{"smiles": "CO[C@H]1C[C@@H]2CC[C@@H](C)[C@@](O)(O2)C(=O)C(=O)N2CCCC[C@H]2C(=O)O[C@H]([C@H](C)C[C@@H]2CC[C@@H](OCCO)[C@H](OC)C2)CC(=O)[C@H](C)/C=C(\\C)[C@@H](O)[C@@H](OC)C(=O)[C@H](C)C[C@H](C)/C=C/C=C/C=C/1C", "note": "[EVEROLIMUS]", "values": [{"measurement": "CC50", "setting": "[1]; Huh-7 cells", "result": "> 10", "unit": "µM"}, {"measurement": "CC50", "setting": "[2]", "result": 28.3, "unit": "µM"}, {"measurement": "CC50", "setting": "[3]", "result": 28.3, "unit": "µM"}, {"measurement": "IC50", "setting": "[4]", "result": 0.0016, "unit": "µM"}, {"measurement": "inhibition at 10 µM", "setting": "[5]", "result": 56, "unit": "%"}]}
{"smiles": "O=C(Nc1nc2cccc(-c3ccc(CN4CCS(=O)(=O)CC4)cc3)n2n1)C1CC1", "note": "[FILGOTINIB]", "values": [{"measurement": "CC50", "setting": "[6]", "result": "> 10", "unit": "µM"}, {"measurement": "EC50", "setting": "[7]", "result": 3.1, "unit": "µM"}]}
{"smiles": "O=c1c(-c2ccc(O)cc2)coc2cc(O)cc(O)c12", "note": "[GENISTEIN]", "values": [{"measurement": "Activity", "setting": "[8]", "result": ">50", "unit": "%"}, {"measurement": "Activity", "setting": "[9]", "result": 90, "unit": "%"}, {"measurement": "Activity", "setting": "[10]", "result": ">50", "unit": "%"}, {"measurement": "CC50", "setting": "[11]", "result": "> 50", "unit": "µM"}, {"measurement": "Activity", "setting": "[12]", "result": ">50", "unit": "%"}, {"measurement": "EC50", "setting": "[13]", "result": 33, "unit": "µM"}, {"measurement": "Activity", "setting": "[14]", "result": 11, "unit": "%"}]}
{"smiles": "Cc1oncc1C(=O)Nc1ccc(C(F)(F)F)cc1", "note": "[LEFLUNOMIDE]", "values": [{"measurement": "CC50", "setting": "[15]", "result": 20.8, "unit": "µM"}, {"measurement": "EC50", "setting": "[16]", "result": 40, "unit": "µM"}]}
{"smiles": "NC1(c2ccc(-c3nc4ccn5c(=O)[nH]nc5c4cc3-c3ccccc3)cc2)CCC1", "note": "[MK-2206]", "values": [{"measurement": "EC50", "setting": "[17]", "result": 0.79, "unit": "µM"}, {"measurement": "CC50", "setting": "[18]", "result": 58.5, "unit": "µM"}, {"measurement": "IC50", "setting": "[19]", "result": 0.79, "unit": "µM"}]}
{"smiles": "C1=C/COCc2cc(ccc2OCCN2CCCC2)Nc2nccc(n2)-c2cccc(c2)COC/1", "note": "[PACRITINIB]", "values": [{"measurement": "CC50", "setting": "[20]", "result": "> 1", "unit": "µM"}]}
{"smiles": "CC(C)[C@H](CO)Nc1nc(Nc2cccc(Cl)c2)c2ncn(C(C)C)c2n1", "note": "[PURVALANOLA]", "values": [{"measurement": "CC50", "setting": "[21]", "result": 18.7, "unit": "µM"}, {"measurement": "EC50", "setting": "[22]", "result": 2.21, "unit": "µM"}, {"measurement": "EC50", "setting": "[23]", "result": 1, "unit": "µM"}, {"measurement": "IC50", "setting": "[24]", "result": 0.004, "unit": "µM"}]}
{"smiles": "N#CC[C@H](C1CCCC1)n1cc(-c2ncnc3[nH]ccc23)cn1", "note": "[RUXOLITINIB]", "values": [{"measurement": "EC50", "setting": "[25]", "result": 0.2, "unit": "µM"}, {"measurement": "EC50", "setting": "[22]", "result": 0.3, "unit": "µM"}, {"measurement": "CC50", "setting": "[26]", "result": "> 100", "unit": "µM"}]}
{"smiles": "CN1CCN(CCOc2cc(OC3CCOCC3)c3c(Nc4c(Cl)ccc5c4OCO5)ncnc3c2)CC1", "note": "[SARACATINIB]", "values": [{"measurement": "EC50", "setting": "[27]", "result": 2.4, "unit": "µM"}, {"measurement": "CC50", "setting": "[1]; huh-7", "result": 74, "unit": "µM"}, {"measurement": "EC50", "setting": "[28]", "result": 2.9, "unit": "µM"}, {"measurement": "EC50", "setting": "[29]", "result": 12.2, "unit": "µM"}, {"measurement": "EC50", "setting": "[30]", "result": 7, "unit": "µM"}, {"measurement": "EC50", "setting": "[31]", "result": 2.9, "unit": "µM"}, {"measurement": "EC50", "setting": "[32]", "result": 12.2, "unit": "µM"}, {"measurement": "EC50", "setting": "[33]", "result": 2.4, "unit": "µM"}]}
{"smiles": "C[S+]([O-])c1ccc(-c2nc(-c3ccc(F)cc3)c(-c3ccncc3)[nH]2)cc1", "note": "(stereo unspecified) [SB-203580]", "values": [{"measurement": "CC50", "setting": "[34]", "result": "> 10", "unit": "µM"}, {"measurement": "Activity", "setting": "[35]", "result": 60, "unit": "%"}]}
{"smiles": "CC(=O)Nc1cccc(-n2c(=O)n(C3CC3)c(=O)c3c(Nc4ccc(I)cc4F)n(C)c(=O)c(C)c32)c1", "note": "[TRAMETINIB]", "values": [{"measurement": "CC50", "setting": "[36]", "result": "> 20", "unit": "µM"}, {"measurement": "EC50", "setting": "[37]", "result": 0.016, "unit": "µM"}, {"measurement": "CC50", "setting": "[38]", "result": "> 20", "unit": "µM"}]}
{"smiles": "C=CC(=O)N1CCC([C@@H]2CCNc3c(C(N)=O)c(-c4ccc(Oc5ccccc5)cc4)nn32)CC1", "note": "[ZANUBRUTINIB]", "values": [{"measurement": "CC50", "setting": "[39]", "result": "> 1.4", "unit": "µM"}]}
